Data from ChEMBL document CHEMBL1201862, “PubChem BioAssay data set” (2004).
The source made the active and inactive calls.

Tests used:
Insulin-degrading enzyme [1] = target: T1, Insulin-degrading enzyme (Homo sapiens, UniProt P14735); assay: cellular IDE activation of Abeta substrate cleavage – fluorescence polarization, HEK cells, dose response (AID 588439); format: functional, cell-based
T1 sequence (P14735 whole entry): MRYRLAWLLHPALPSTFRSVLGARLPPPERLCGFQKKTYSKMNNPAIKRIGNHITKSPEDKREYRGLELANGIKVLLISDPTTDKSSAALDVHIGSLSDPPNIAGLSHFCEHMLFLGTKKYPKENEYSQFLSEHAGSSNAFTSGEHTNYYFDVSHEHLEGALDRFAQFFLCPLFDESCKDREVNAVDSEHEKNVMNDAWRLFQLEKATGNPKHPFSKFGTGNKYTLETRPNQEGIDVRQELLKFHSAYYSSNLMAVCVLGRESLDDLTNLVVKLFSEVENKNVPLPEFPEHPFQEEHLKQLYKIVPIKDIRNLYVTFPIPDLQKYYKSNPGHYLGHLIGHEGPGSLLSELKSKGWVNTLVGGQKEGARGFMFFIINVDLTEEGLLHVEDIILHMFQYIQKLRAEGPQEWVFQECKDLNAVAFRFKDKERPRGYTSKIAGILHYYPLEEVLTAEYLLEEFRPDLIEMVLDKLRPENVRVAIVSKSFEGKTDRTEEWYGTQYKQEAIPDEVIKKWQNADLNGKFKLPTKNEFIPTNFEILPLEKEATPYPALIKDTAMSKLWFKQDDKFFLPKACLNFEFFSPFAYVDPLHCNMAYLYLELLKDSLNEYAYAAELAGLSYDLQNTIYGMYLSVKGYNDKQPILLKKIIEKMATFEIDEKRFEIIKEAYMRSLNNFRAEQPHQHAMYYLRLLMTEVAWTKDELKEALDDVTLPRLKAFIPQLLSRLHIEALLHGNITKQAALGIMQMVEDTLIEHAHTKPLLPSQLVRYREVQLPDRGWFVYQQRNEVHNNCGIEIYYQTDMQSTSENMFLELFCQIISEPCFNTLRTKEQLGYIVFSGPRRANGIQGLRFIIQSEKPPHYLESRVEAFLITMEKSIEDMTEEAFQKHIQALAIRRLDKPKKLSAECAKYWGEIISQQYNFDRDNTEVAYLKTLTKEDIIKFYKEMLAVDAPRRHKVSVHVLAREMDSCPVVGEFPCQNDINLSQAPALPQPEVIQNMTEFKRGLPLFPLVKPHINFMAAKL

HEK293 [2] = assay: membrane integrity loss in HEK cells – cell-based, fluorescence, cytotoxicity control for IDE activator project, dose response (AID 588440); format: functional; conditions: Homo sapiens;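 also: cytotoxicity by LDH release measuring loss of membrane integrity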
HEK293 [3] = assay: optical interference in Abeta FP readout, dose response, artefact control for IDE activator project, biochemical, fluorescence polarization (AID 588442); format: functional, cell-based; conditions: Homo sapiens
Insulin-degrading enzyme [4] = target: T1, Insulin-degrading enzyme; assay: recombinant IDE activation, cell-free – biochemical, fluorescence polarization, counter-screen for IDE activator project, dose response (AID 588681)
[5] = A549 cell cytotoxicity, dose response, cytotoxicity control, plate reader, cherry-pick, antagonist series (AID 743412); format: functional, cell-based
[6] = Luminescence Cell-Based Dose Response HTS to Identify Inhibitors of 5'UTR Stem-Loop Driven Prion Protein mRNA Translation in H4 Neuroglioblastoma Cells. [Related pubchem assays: 1827 (Project Summary), 1813 (Primary HTS)]; format: functional
[7] = blockade of melanocortin 4 receptor signaling – cell-based, plate reader, cherry pick, counter-screen for LGR2 antagonist project, dose response (AID 743444); format: functional;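 also: transfected HEK 293 cells stimulated with alpha-MSH peptide; potency of inhibitors of the alpha-MSH evoked signal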
[8] = viability of uninfected HEp-2 cells – cell-based, HTS, cytotoxicity control for RSV inhibitor project, dose response (AID 2410); format: functional; conditions: human respiratory syncytial virus
HEK293 [9] = assay: EBV LMP1 TES2 canonical NF-kB signalling blockers – cell-based, HEK293, luciferase, cherry-pick, dose response (AID 588343); format: functional; conditions: Homo sapiens
[10] = luciferase reporter signal suppression in cells – H4 neuroglioma cells, luminescence, dose response (AID 1990); format: functional, cell-based
[11] = blockers of bursicon-stimulated LGR2 cAMP reporter – cell-based, HEK293, CRE-luciferase reporter, cherry pick, set 2, dose response (AID 743343); format: functional;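 also: transfected cells were stimulated with diluted bursicon conditioned medium after compound addition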
[12] = alpha-synuclein stem-loop luciferase translation blockers – H4 neuroglioma cells, luminescence, confirmation (AID 1988); format: functional, cell-based
[13] = toxicity toward HepG2 liver cells – cell-based, plate reader, cherry-pick, antagonist series, cytotoxicity control, dose response (AID 743416); format: functional
Cytochrome P450 2D6 = Cytochrome P450 2D6 (Homo sapiens, UniProt P10635);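 also: CYP2D6 member of a cytochrome P450 panel assay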
[14] = target: Peroxisome proliferator-activated receptor gamma/Nuclear receptor coactivator 2 (Homo sapiens, UniProt P37231); assay: TR-FRET dose response biochemical High Throughput Screening assay for agonists of the steroid receptor coactivator 2 (SRC-2) recruitment by the peroxisome proliferator-activated receptor gamma (PPAR gamma): non-selective agonists. [Related pubchem assays: 1297, 1032 ]; format: functional
[15] = target: Peroxisome proliferator-activated receptor gamma/Nuclear receptor coactivator 1 (Homo sapiens, UniProt P37231); assay: TR-FRET dose response biochemical High Throughput Screening assay for agonists of the steroid receptor coactivator 1 (SRC-1) recruitment by the peroxisome proliferator-activated receptor gamma (PPAR gamma): non-selective agonists. [Related pubchem assays (depositor defined):AID1300, AID1808, AID504735, AID631]; format: protein assay
[16] = target: Peroxisome proliferator-activated receptor gamma/Nuclear receptor coactivator 3 (Homo sapiens, UniProt P37231); assay: TR-FRET dose response biochemical High Throughput Screening assay for agonists of the steroid receptor coactivator 3 (SRC-3) recruitment by the peroxisome proliferator-activated receptor gamma (PPAR gamma): non-selective agonists. [Related pubchem assays: 1301 (Confirmation screen.), 1048 (Primary screen.)]; format: functional
Cytochrome P450 3A4 = Cytochrome P450 3A4 (Homo sapiens, UniProt P08684);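 also: CYP3A4 tested as one member of a cytochrome P450 panel screen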
[17] = target: Dual specificity tyrosine-phosphorylation-regulated kinase 1A (Rattus norvegicus, UniProt Q63470); format: biochemical, Homo sapiens
[18] = target: T2, Endoribonuclease toxin MazF (Escherichia coli K-12, UniProt P0AE70); assay: substrate-only fluorescence increase artefacts – biochemical, single-stranded RNase substrate, counter-screen for MazEF activator project, dose response (AID 588502); format: functional
T2 sequence (P0AE70 whole entry): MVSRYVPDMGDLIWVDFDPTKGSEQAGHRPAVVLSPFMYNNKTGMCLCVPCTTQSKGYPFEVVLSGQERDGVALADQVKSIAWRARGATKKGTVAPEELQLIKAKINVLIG

[19] = target: T2, Endoribonuclease toxin MazF; assay: activation of MazEF endoribonuclease cleavage – biochemical, fluorescence, single-stranded RNA substrate, uHTS hits, dose response (AID 588481); format: functional
[20] = target: T3, Carboxy-terminal domain RNA polymerase II polypeptide A small phosphatase 1 (Homo sapiens, UniProt Q9GZU7); assay: CTDSP1 inhibitors, concentration-response, biochemical, absorbance readout, ultra-high-throughput screen actives (AID 540297); format: functional
T3 sequence (Q9GZU7 whole entry): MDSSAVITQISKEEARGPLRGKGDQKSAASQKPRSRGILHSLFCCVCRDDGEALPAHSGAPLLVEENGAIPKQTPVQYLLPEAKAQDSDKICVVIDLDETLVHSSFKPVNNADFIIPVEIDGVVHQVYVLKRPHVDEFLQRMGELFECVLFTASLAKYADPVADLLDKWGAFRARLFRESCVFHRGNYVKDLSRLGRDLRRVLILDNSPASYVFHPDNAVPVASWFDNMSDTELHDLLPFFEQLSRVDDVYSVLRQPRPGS

[21] = target: T4, Voltage-gated N-type calcium channel alpha-1B subunit/Amyloid beta A4 precursor protein-binding family A member 1 (Homo sapiens, UniProt Q00975+Q02410); format: protein assay
[22] = target: T4, Voltage-gated N-type calcium channel alpha-1B subunit/Amyloid beta A4 precursor protein-binding family A member 1; format: protein assay; remark: listed apart in the source
Streptococcus = assay: GAS UMAA2166 growth inhibition – luminescence, BacTiterGlo, counter-screen for streptokinase expression inhibitor project, dose response (AID 1915); format: functional, organism-based;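 also: potency for reduction of bacterial viability or growth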
[23] = system: Streptococcus sp. 'group A'; assay: Streptococcus pyogenes SK(-)GAS viability under kanamycin – luminescence, BacTiterGlo, confirmation, counter-screen for streptokinase expression inhibitor project, dose response (AID 1900); format: functional, organism-based
Streptokinase A = target: T5, Streptokinase A (Streptococcus pyogenes serotype M1, UniProt P10520); assay: viability-normalized secreted streptokinase activity reduction – plasminogen activation absorbance, OD405, dose response (AID 1914); format: functional, Streptococcus pyogenes M1 GAS;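 also: secreted streptokinase activity via plasminogen activation per viability signal from cell pellet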
T5 sequence (P10520 whole entry): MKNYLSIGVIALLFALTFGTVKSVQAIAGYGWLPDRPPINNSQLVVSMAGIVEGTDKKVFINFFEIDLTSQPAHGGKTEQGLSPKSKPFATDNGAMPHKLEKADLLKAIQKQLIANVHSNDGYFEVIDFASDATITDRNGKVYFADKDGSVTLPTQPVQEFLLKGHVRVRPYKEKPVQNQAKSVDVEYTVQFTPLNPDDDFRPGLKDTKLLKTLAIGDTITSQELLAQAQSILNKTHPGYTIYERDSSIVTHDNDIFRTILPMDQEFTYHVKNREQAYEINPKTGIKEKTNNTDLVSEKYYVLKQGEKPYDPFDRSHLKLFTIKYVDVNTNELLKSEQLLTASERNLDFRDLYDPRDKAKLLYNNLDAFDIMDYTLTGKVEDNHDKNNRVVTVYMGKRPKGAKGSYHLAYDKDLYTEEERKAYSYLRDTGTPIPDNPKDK

cells = format: functional
Vero = assay: viability of Vero cells under compound – cytotoxicity control for flavivirus capping enzyme inhibitors (AID 588742); format: functional; conditions: Chlorocebus sabaeus
Large T antigen = Large T antigen (Simian virus 40, UniProt P03070); format: functional, Betapolyomavirus macacae;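 also: Confirmatory-stage PubChem screen for compounds that inhibit SV40 T antigen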
Cytochrome P450 2C9 = Cytochrome P450 2C9 (Homo sapiens, UniProt P11712)

Chain of Peroxisome proliferator-activated receptor gamma/Nuclear receptor coactivator 1 (P37231 whole entry): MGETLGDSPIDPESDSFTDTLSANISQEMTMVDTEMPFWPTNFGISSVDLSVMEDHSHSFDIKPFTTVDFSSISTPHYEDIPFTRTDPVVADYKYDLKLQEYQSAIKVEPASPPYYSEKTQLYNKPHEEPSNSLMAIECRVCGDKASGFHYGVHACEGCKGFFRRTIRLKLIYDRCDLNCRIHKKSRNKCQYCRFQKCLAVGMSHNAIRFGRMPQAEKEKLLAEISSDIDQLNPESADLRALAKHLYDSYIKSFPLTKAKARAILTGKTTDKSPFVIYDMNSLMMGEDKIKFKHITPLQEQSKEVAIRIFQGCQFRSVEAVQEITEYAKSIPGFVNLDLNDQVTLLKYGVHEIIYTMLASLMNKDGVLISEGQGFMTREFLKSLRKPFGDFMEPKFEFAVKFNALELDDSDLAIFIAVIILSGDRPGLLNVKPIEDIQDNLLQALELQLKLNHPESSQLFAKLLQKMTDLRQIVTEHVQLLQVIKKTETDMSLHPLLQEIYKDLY
Chain of Peroxisome proliferator-activated receptor gamma/Nuclear receptor coactivator 1 (Q15788 whole entry, further chain): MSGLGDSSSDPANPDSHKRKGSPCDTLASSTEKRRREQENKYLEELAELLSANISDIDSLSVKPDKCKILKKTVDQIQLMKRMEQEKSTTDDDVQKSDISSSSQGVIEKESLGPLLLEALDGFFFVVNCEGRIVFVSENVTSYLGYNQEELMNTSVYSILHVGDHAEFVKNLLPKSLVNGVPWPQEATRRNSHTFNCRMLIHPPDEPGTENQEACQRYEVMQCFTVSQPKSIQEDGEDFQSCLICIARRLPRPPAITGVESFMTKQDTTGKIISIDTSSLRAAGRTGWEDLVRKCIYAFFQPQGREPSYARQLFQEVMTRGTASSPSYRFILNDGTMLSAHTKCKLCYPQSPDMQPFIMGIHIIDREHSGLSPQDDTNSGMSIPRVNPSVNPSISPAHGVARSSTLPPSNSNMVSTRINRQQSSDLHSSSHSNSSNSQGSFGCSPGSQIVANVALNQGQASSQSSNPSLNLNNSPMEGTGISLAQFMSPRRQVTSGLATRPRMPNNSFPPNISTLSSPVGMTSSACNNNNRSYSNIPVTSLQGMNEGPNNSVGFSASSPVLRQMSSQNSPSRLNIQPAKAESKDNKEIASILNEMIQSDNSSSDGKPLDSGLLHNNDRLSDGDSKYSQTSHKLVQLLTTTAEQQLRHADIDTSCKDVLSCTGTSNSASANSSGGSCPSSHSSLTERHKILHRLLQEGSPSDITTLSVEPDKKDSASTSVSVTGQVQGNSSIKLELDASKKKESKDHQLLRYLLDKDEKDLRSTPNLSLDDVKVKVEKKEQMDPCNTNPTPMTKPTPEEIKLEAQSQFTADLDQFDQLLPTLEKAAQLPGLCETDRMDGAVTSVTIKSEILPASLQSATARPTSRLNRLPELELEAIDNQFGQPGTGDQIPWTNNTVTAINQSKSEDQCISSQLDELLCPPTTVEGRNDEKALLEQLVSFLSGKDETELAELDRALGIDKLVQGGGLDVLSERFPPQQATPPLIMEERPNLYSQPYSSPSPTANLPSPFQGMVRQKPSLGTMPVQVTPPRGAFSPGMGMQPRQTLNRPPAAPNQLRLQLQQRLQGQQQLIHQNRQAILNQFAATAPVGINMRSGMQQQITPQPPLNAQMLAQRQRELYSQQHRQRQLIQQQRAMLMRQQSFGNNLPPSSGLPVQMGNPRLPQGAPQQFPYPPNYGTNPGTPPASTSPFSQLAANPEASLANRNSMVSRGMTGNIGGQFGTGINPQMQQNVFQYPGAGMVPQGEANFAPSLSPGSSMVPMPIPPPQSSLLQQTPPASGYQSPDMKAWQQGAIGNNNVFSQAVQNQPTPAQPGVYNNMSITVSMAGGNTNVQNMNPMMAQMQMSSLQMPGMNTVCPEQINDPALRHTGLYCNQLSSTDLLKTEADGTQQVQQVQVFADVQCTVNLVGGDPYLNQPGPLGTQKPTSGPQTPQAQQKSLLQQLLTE
Chain of Peroxisome proliferator-activated receptor gamma/Nuclear receptor coactivator 3 (P37231 whole entry): as the sequence (P37231 whole entry) above
Chain of Peroxisome proliferator-activated receptor gamma/Nuclear receptor coactivator 3 (Q9Y6Q9 whole entry, further chain): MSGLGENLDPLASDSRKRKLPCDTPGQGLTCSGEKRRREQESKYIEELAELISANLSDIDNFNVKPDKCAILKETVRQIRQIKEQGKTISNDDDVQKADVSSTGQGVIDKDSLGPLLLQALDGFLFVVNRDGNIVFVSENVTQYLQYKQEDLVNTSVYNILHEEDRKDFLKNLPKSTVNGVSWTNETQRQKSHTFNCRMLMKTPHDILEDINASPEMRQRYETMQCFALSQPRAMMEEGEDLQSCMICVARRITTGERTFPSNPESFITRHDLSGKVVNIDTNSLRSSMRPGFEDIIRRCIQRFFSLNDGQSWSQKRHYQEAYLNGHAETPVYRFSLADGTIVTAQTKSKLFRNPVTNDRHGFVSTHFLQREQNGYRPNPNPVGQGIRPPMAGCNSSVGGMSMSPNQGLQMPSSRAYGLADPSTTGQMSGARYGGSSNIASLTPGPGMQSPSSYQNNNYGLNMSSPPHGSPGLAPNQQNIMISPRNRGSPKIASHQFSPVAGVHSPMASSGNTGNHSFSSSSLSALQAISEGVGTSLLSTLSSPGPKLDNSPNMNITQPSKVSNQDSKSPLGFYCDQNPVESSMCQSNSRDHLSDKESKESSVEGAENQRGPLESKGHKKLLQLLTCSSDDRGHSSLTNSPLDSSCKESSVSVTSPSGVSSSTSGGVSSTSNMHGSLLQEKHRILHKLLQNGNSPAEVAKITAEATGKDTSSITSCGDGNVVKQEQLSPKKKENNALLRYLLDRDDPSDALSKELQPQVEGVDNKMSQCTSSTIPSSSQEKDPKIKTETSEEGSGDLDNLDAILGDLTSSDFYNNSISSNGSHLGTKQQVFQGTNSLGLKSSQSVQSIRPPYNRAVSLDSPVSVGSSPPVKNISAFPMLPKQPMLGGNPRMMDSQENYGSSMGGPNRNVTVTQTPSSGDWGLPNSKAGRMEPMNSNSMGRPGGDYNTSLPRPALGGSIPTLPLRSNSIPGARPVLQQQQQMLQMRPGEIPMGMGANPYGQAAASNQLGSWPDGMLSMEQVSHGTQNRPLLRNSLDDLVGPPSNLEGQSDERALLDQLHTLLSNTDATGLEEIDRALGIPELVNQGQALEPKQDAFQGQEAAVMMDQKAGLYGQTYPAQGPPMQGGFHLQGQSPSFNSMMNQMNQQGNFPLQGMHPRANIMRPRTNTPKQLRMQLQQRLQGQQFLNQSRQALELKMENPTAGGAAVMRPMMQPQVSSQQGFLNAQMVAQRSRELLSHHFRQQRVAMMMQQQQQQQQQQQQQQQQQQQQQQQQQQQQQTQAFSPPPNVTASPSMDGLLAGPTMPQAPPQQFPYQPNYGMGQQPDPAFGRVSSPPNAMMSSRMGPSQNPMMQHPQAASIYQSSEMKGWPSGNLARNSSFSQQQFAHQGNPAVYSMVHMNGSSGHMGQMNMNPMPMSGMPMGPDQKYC
Chain of Cytochrome P450 2D6 (P10635 whole entry): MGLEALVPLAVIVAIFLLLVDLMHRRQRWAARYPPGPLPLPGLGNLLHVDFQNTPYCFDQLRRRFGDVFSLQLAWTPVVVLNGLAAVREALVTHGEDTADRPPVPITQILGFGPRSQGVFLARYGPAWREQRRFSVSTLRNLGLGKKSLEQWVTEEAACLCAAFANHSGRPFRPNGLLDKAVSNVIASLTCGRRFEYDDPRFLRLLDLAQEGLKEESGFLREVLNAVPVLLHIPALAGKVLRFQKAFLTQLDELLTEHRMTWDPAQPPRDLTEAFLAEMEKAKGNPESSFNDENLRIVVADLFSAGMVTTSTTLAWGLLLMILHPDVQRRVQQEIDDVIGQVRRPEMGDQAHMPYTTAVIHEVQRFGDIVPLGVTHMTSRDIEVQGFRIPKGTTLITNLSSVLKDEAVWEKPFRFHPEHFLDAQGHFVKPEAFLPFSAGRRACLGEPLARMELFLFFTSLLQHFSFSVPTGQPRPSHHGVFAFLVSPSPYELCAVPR
Chain of Cytochrome P450 3A4 (P08684 whole entry): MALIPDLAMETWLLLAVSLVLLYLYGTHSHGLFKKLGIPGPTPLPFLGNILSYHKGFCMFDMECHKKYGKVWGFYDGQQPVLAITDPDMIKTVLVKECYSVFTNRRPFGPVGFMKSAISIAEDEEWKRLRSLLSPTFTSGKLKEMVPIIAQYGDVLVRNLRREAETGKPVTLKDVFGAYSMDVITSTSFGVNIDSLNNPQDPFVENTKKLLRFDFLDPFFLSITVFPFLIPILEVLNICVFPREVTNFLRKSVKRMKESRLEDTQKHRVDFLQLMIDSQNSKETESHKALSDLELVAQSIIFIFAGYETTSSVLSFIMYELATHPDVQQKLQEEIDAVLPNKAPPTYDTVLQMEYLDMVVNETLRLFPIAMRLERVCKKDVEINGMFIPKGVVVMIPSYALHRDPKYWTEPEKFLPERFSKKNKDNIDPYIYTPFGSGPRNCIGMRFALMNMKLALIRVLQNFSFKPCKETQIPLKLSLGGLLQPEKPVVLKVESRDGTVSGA

## O=C1C=C(c2cccc3c2sc2ccccc23)C[C@@H](c2ccc(Cl)cc2)C1
Insulin-degrading enzyme [1]
  EC50: > 54.7 µM (inactive)
HEK293 [2]
  IC50: > 89.2 µM (inactive)
HEK293 [3]
  EC50: > 54.7 µM (inactive)
Insulin-degrading enzyme [4]
  EC50: > 54.7 µM (inactive)

## c1ccc(-n2nnc3c(N4CCOCC4)ncnc32)cc1
[5]
  AC50: > 52 µM (inactive)
[6]
  EC50: 8.24 µM (active)
[7]
  AC50: 8.39 µM (active)
[8]
  CC50: 23.6 µM (active)
HEK293 [9]
  AC50: 2.47 µM (active)
[10]
  EC50: 6.29 µM (inconclusive)
[11]
  AC50: 7.67 µM (active)
[12]
  EC50: 7.18 µM (inconclusive)
[13]
  AC50: > 52 µM (inactive)

## O=C(O)CCC(=O)c1ccc2ccc3cccc4ccc1c2c34
Cytochrome P450 2D6
  AC50: inconclusive

## CCOC(=O)N1CCC(NC(=O)CSc2cc(=O)n(C)c3ccccc23)CC1
[14]
  EC50: > 79.4 µM (not active)
[15]
  EC50: > 79.4 µM (inactive)
[16]
  EC50: > 79.4 µM (not active)

## COc1ccc(NC(=O)N2CC[C@@]3(CCCN(C(=O)c4cnccn4)C3)C2)cc1
Cytochrome P450 2D6
  AC50: inconclusive
Cytochrome P450 3A4
  AC50: 3.16 µM (inconclusive)

## O=C1NC(=O)N(c2ccccc2)C(=O)/C1=C/c1c(-c2ccccc2)[nH]c2ccccc12
[17]
  AC50: 2.65 µM (active)

## Nc1c(C(=O)NC2CCCC2)sc2nc(-c3cccs3)ccc12
[18]
  EC50: 54 µM (inactive)
[19]
  EC50: > 99 µM (inactive)

## COc1ccccc1NC(=O)CC(c1ccc(OC(C)C)cc1)c1ccccc1OC (stereo not drawn)
HEK293 [9]
  AC50: 194 µM (active)

## CCCCn1c(O)c(N=Nc2ccccc2O)c2ccccc21
[18]
  EC50: 69.5 µM (inactive)
[19]
  EC50: 44.9 µM (inactive)

## COc1ccc([C@@H]2CC(=O)c3c(O)cc(O[C@@H]4O[C@H](CO[C@@H]5O[C@@H](C)[C@H](O)[C@@H](O)[C@H]5O)[C@@H](O)[C@H](O)[C@H]4O)cc3O2)cc1O [HESPERIDIN]
[20]
  IC50: 20.7 µM (active)
[21]
  IC50: > 50 µM (inactive)
[22]
  IC50: 9.5 µM (active)

## Cc1ccc(/C=C/C(=O)C2C(=O)c3ccccc3C2=O)cc1
HEK293 [9]
  AC50: 4.18 µM (active)
Streptococcus
  EC50: 9.64 µM (active)
[23]
  EC50: 1.95 µM (active)
Streptokinase A
  EC50: > 150 µM (not active)

## CC(=O)n1cc(/C=C2/N=C(c3ccccc3)OC2=O)c2ccccc21
cells
  IC50: 4.63 µM (active)
[18]
  EC50: > 99 µM (inactive)
[19]
  EC50: > 99 µM (inactive)

## Cc1[nH]c(O)nc1C(=O)CCCCC(=O)O
HEK293 [2]
  IC50: > 89.3 µM (inactive)
HEK293 [3]
  EC50: 22.6 µM (inactive)

## Cn1c(=O)cc(SCC(=O)N2CCN(Cc3ccc4c(c3)OCO4)CC2)c2ccccc21
[14]
  EC50: > 79.4 µM (not active)
[15]
  EC50: > 79.4 µM (inactive)
[16]
  EC50: > 79.4 µM (not active)

## CCCC1O[C@@H]2CC3C4CCC5=CC(=O)C=C[C@]5(C)C4C(OC(C)=O)C[C@]3(C)[C@]2(C(=O)COC(C)=O)O1 (stereo partly drawn)
[6]
  EC50: > 120 µM (not active)
[14]
  EC50: 8.71 µM (active)
[15]
  EC50: 6.65 µM (active)
[10]
  EC50: 22.1 µM (active)
[12]
  EC50: 18.8 µM (active)
[16]
  EC50: 4.66 µM (active)

## COC(=O)CSc1nc2cc(C)ccc2cc1C#N
[18]
  EC50: > 99 µM (inactive)
[19]
  EC50: > 99 µM (inactive)

## Oc1ccc(NCc2cccs2)cc1
Vero
  CC50: > 40 µM (active)
Large T antigen
  IC50: 28.7 µM (active)

## O=C(NCc1ccccn1)c1cc(-c2ccccc2Cl)on1
Cytochrome P450 2C9
  AC50: inconclusive
Cytochrome P450 2D6
  AC50: inconclusive
Cytochrome P450 3A4
  AC50: 15.8 µM (inconclusive)
